Data on 18 compounds can be found in PubChem BioAssay AID330 (DTP/NCI, 2004).

For the experiment, the system named is P388 leukemia ip, CD2F1 mice, survival T/C. As to the kind of experiment: NCI In Vivo Anticancer Drug Screen. Data for tumor model P388 Leukemia (intraperitoneal) in CD2F1 (CDF1) mice. The settings on record: endpoint: median survival time, higher = longer survival. The gist of the method: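 Mice carrying the transplanted tumor received test compound or vehicle. Survival was recorded in each group, and the value is the treated-group measurement divided by that of the vehicle-treated control group.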

Setting [1] is: dose: 100.0 mg/kg/injection, schedule: Q04DX003 (ip), vehicle: saline with Tween-80.
Setting [2] is: dose: 50.0 mg/kg/injection, schedule: Q01DX009 (ip), vehicle: saline with Tween-80.
Where [3] appears, read: dose: 100.0 mg/kg/injection, schedule: Q01DX009 (ip), vehicle: saline with Tween-80.
The mark [4] stands for this setting: dose: 60.0 mg/kg/injection, schedule: Q01DX005 (ip), vehicle: Klucel (hydroxypropylcellulose) (HPC).
Setting [5] is: dose: 120.0 mg/kg/injection, schedule: Q01DX005 (ip), vehicle: Klucel (hydroxypropylcellulose) (HPC).

“And” between values parts separate entries of the source, which are not always exact repeats. Equal values may be shown once. Toxic doses and inconclusive results are not listed.

As for `CN1CCN(C)C(=O)C1=O`, the T/C (dose: 12.5 mg/kg/injection, schedule: Q04DX003 (ip), vehicle: suspension in saline) is 108 % of control; the T/C (dose: 25.0 mg/kg/injection, schedule: Q04DX003 (ip), vehicle: suspension in saline) is 115 % of control; the T/C (dose: 50.0 mg/kg/injection, schedule: Q04DX003 (ip), vehicle: suspension in saline) was 110 % of control.
`O=C(O)C(CSC(c1ccccc1)(c1ccccc1)c1ccccc1)N=Cc1ccccc1O` (configuration not stated): the T/C under setting [1] is 168 % of control; the T/C (dose: 150.0 mg/kg/injection, schedule: Q04DX003 (ip), vehicle: saline with Tween-80) was 190 % of control; the T/C (dose: 200.0 mg/kg/injection, schedule: Q04DX003 (ip), vehicle: saline with Tween-80) is 122 % of control.
With `Cc1nnc(NC(=O)CCl)s1`, the T/C is 95 % of control (dose: 25.0 mg/kg/injection, schedule: Q01DX009 (ip), vehicle: saline with Tween-80); 100 % of control under setting [2]; 104 % of control under setting [3].
For `O=C(Nc1ccc(Cl)c(Cl)c1)/C(Cl)=C1/Sc2ccccc2NC1=O`, the T/C is 105 % of control (dose: 60.0 mg/kg/injection, schedule: Q01DX005 (ip), vehicle: saline with Tween-80); 105 % of control (dose: 120.0 mg/kg/injection, schedule: Q01DX005 (ip), vehicle: saline with Tween-80); 105 % of control (dose: 240.0 mg/kg/injection, schedule: Q01DX005 (ip), vehicle: saline with Tween-80).
As for `Cc1c(C)c2c(N)c3ccccc3nc2c2ccccc12`, the T/C by setting is: (dose: 12.5 mg/kg/injection, schedule: Q01DX001 (ip), vehicle: saline with Tween-80) 101 % of control; (dose: 25.0 mg/kg/injection, schedule: Q01DX001 (ip), vehicle: saline with Tween-80) 100 % of control; (dose: 50.0 mg/kg/injection, schedule: Q01DX001 (ip), vehicle: saline with Tween-80) 115 % of control; (dose: 100.0 mg/kg/injection, schedule: Q01DX001 (ip), vehicle: saline with Tween-80) 111 % of control.
Take `COc1ccc(CC#N)c(C(=O)O)c1`: the T/C was 106 % of control (dose: 50.0 mg/kg/injection, schedule: Q01DX005 (ip), vehicle: Klucel (hydroxypropylcellulose) (HPC)); 103 % of control (dose: 100.0 mg/kg/injection, schedule: Q01DX005 (ip), vehicle: Klucel (hydroxypropylcellulose) (HPC)); 101 % of control (dose: 200.0 mg/kg/injection, schedule: Q01DX005 (ip), vehicle: Klucel (hydroxypropylcellulose) (HPC)).
In the case of `C=CCCn1ccnc1[N+](=O)[O-]`, the T/C was 94 % of control (dose: 12.5 mg/kg/injection, schedule: Q01DX009 (ip), vehicle: water); 93 % of control (dose: 25.0 mg/kg/injection, schedule: Q01DX009 (ip), vehicle: water); 100 % of control (dose: 50.0 mg/kg/injection, schedule: Q01DX009 (ip), vehicle: water).
`CC(C)=C/C(C)=N/NC(N)=O`: the T/C (dose: 12.5 mg/kg/injection, schedule: Q04DX003 (ip), vehicle: saline with Tween-80) was 98 % of control; the T/C (dose: 25.0 mg/kg/injection, schedule: Q04DX003 (ip), vehicle: saline with Tween-80) is 94 % of control; the T/C (dose: 50.0 mg/kg/injection, schedule: Q04DX003 (ip), vehicle: saline with Tween-80) was 91 % of control; the T/C under setting [1] was 94 % of control.
Turning to `CCCCC/C=N/N(C)C=O`, the T/C reads like this: (dose: 100.0 mg/kg/injection, schedule: Q04DX002 (ip), vehicle: saline) 103 % of control; (dose: 200.0 mg/kg/injection, schedule: Q04DX002 (ip), vehicle: saline) 103 % of control; (dose: 400.0 mg/kg/injection, schedule: Q04DX002 (ip), vehicle: saline) 100 % of control.
In the case of `C=CC(C)(C)C12Oc3c(ccc(OC)c3OC)C1=COc1cc(O)ccc12` (configuration not stated), the T/C runs as follows: (dose: 100.0 mg/kg/injection, schedule: Q01DX001 (ip), vehicle: Klucel (hydroxypropylcellulose) (HPC)) 101 % of control; (dose: 200.0 mg/kg/injection, schedule: Q01DX001 (ip), vehicle: Klucel (hydroxypropylcellulose) (HPC)) 105 % of control; (dose: 400.0 mg/kg/injection, schedule: Q01DX001 (ip), vehicle: Klucel (hydroxypropylcellulose) (HPC)) 97 % of control.
With `CCOc1c(N=Nc2cccc(Cl)c2)c(-c2ccccc2)nn1C(=S)S`, the T/C is, setting by setting: (dose: 0.78 mg/kg/injection, schedule: Q01DX005 (ip), vehicle: saline with Tween-80) 100 % of control; (dose: 1.56 mg/kg/injection, schedule: Q01DX005 (ip), vehicle: saline with Tween-80) 99 % of control; (dose: 3.13 mg/kg/injection, schedule: Q01DX005 (ip), vehicle: saline with Tween-80) 100 % of control; (dose: 6.25 mg/kg/injection, schedule: Q01DX005 (ip), vehicle: saline with Tween-80) 99 % of control and 100 % of control.
As to `N/C(=C\c1nc2ccccc2nc1-c1ccccc1)c1ccccc1Cl`, the T/C reads like this: under setting [4], 100 % of control; under setting [5], 91 % of control.
Regarding `C=C1C(C2=NCCN2O)OC2OC(C)(C)OC12` (configuration not stated), the T/C runs as follows: (dose: 100.0 mg/kg/injection, schedule: Q04DX002 (ip), vehicle: Klucel (hydroxypropylcellulose) (HPC)) 98 % of control; (dose: 200.0 mg/kg/injection, schedule: Q04DX002 (ip), vehicle: Klucel (hydroxypropylcellulose) (HPC)) 103 % of control; (dose: 400.0 mg/kg/injection, schedule: Q04DX002 (ip), vehicle: Klucel (hydroxypropylcellulose) (HPC)) 97 % of control.
As to `O=C1NC(=O)N(c2ccccc2)C(=O)/C1=C/c1ccc2c(c1)CCC2`, the T/C under setting [4] was 95 % of control; the T/C under setting [5] is 97 % of control; the T/C (dose: 240.0 mg/kg/injection, schedule: Q01DX005 (ip), vehicle: Klucel (hydroxypropylcellulose) (HPC)) was 108 % of control.
Consider `NC(=NCCCC(NCc1ccccc1)C(=O)O)N[N+](=O)[O-]` (configuration not stated), for which the T/C (dose: 12.5 mg/kg/injection, schedule: Q01DX009 (ip), vehicle: Klucel (hydroxypropylcellulose) (HPC)) was 98 % of control; the T/C (dose: 25.0 mg/kg/injection, schedule: Q01DX009 (ip), vehicle: Klucel (hydroxypropylcellulose) (HPC)) is 99 % of control; the T/C (dose: 50.0 mg/kg/injection, schedule: Q01DX009 (ip), vehicle: Klucel (hydroxypropylcellulose) (HPC)) was 99 % of control and 100 % of control; the T/C (dose: 100.0 mg/kg/injection, schedule: Q01DX009 (ip), vehicle: Klucel (hydroxypropylcellulose) (HPC)) was 99 % of control and 100 % of control; the T/C (dose: 200.0 mg/kg/injection, schedule: Q01DX009 (ip), vehicle: Klucel (hydroxypropylcellulose) (HPC)) is 100 % of control and 96 % of control; the T/C (dose: 400.0 mg/kg/injection, schedule: Q01DX009 (ip), vehicle: Klucel (hydroxypropylcellulose) (HPC)) was 94 % of control.
With `CN(C)c1nc(-c2ccccc2)cc(=O)[nH]1`, the T/C is 102 % of control (dose: 15.0 mg/kg/injection, schedule: Q01DX009 (ip), vehicle: saline with Tween-80); 108 % of control (dose: 30.0 mg/kg/injection, schedule: Q01DX009 (ip), vehicle: saline with Tween-80); 98 % of control (dose: 50.0 mg/kg/injection, schedule: Q04DX003 (ip), vehicle: Klucel (hydroxypropylcellulose) (HPC)); 100 % of control (dose: 60.0 mg/kg/injection, schedule: Q01DX009 (ip), vehicle: saline with Tween-80); 94 % of control (dose: 100.0 mg/kg/injection, schedule: Q04DX003 (ip), vehicle: Klucel (hydroxypropylcellulose) (HPC)); 94 % of control (dose: 200.0 mg/kg/injection, schedule: Q04DX003 (ip), vehicle: Klucel (hydroxypropylcellulose) (HPC)). For the same compound, the T/C (dose: 400.0 mg/kg/injection, schedule: Q04DX003 (ip), vehicle: Klucel (hydroxypropylcellulose) (HPC)) is 92 % of control.
With `CC(N)C(=O)NC(C)P(=O)(O)O` (configuration not stated), the T/C is 102 % of control under setting [2]; 101 % of control under setting [3]; 101 % of control (dose: 200.0 mg/kg/injection, schedule: Q01DX009 (ip), vehicle: saline with Tween-80).
Take `Nc1cnc2ccccn12`: the T/C is 97 % of control under setting [2] and 102 % of control under setting [3].
